Experimental data taken from the CombiSolv-Exp solvation set (Vermeire and Green 2021).

Assay: solvent given as SMILES

CC(C)CCCCCCCOC(=O)c1ccccc1C(=O)OCCCCCCCC(C)C
Conditions	solvation free energy, 298 K [kcal/mol]
in O	-5.93

CCC(=O)CC
Conditions	solvation free energy, 298 K [kcal/mol]
in CC(C)CCCC(C)CCCC(C)CCCCC(C)CCCC(C)CCCC(C)C	-3.73
in CCCCCCC	-4.04
in CCCCCCCCC=CCCCCCCCC(=O)OCC(COC(=O)CCCCCCCC=CCCCCCCCC)OC(=O)CCCCCCCC=CCCCCCCCC	-4.31
in CCCCCCCCCCCCCCCC	-3.73
in CCCCCCCCO	-4.34
in CN1CCCC1=O	-4.76
in CO	-4.96
in O	-3.33
in O=CN1CCOCC1	-4.45
in [2H]O[2H]	-3.27

CCCCOC(C)=O
Conditions	solvation free energy, 298 K [kcal/mol]
in CC(=O)N(C)C	-5.24
in CC(C)CCCC(C)CCCC(C)CCCCC(C)CCCC(C)CCCC(C)C	-4.52
in CCCCC(CC)COC(=O)CCCCC(=O)OCC(CC)CCCC	-4.89
in CCCCCC	-4.94
in CCCCCCC	-4.92
in CCCCCCCC	-4.9
in CCCCCCCCC=CCCCCCCCC(=O)OCC(COC(=O)CCCCCCCC=CCCCCCCCC)OC(=O)CCCCCCCC=CCCCCCCCC	-5.07
in CCCCCCCCCC	-4.75
in CCCCCCCCCCCCCCCC	-4.52
in CCCCCCCCO	-5.01
in CCCCN(C=O)CCCC	-5.24
in CNC(C)=O	-5.14
in CO	-5.36
in NC=O	-4.07
in O	-2.65
in [2H]O[2H]	-2.76

c1ccc2c(c1)Cc1ccccc1O2
Conditions	solvation free energy, 298 K [kcal/mol]
in C1CCOC1	-10.9
in C1COCCO1	-10.8
in CC(C)(C)O	-9.25
in CC(C)CC(C)(C)C	-9.39
in CC(C)CC(C)O	-9.34
in CC(C)CCO	-9.39
in CC(C)CO	-9.24
in CC(C)O	-9.22
in CC(C)OC(C)C	-9.95
in CCC(C)(C)O	-9.49
in CCC(C)O	-9.33
in CCCC(C)CO	-9.42
in CCCC(C)O	-9.43
in CCCCCC	-9.63
in CCCCCCC	-9.67
in CCCCCCCC	-9.68
in CCCCCCCCCC	-9.67
in CCCCCCCCCCO	-9.67
in CCCCCCCCO	-9.67
in CCCCCCCO	-9.66
in CCCCCCO	-9.63
in CCCCCO	-9.57
in CCCCO	-9.53
in CCCCOCCCC	-10.1
in CCCO	-9.41
in CCO	-9.19
in CCOCC	-10.5
in CO	-9.2
in COC(C)(C)C	-10.3
in ClC(Cl)(Cl)Cl	-10.8
in ClCCCl	-10.8

Clc1cc(Cl)c2c(c1Cl)Oc1ccccc1O2
Conditions	solvation free energy, 298 K [kcal/mol]
in O	-4.05

C=C(C)C1CCC(C)C(=O)C1 (stereo not drawn)
Conditions	solvation free energy, 298 K [kcal/mol]
in O	-3.75

CC(=O)NS(=O)(=O)c1ccc(N)cc1
Conditions	solvation free energy, 298 K [kcal/mol]
in O	-18.4

O=[N+]([O-])c1ccc(O)c([N+](=O)[O-])c1
Conditions	solvation free energy, 298 K [kcal/mol]
in CCCCCC	-8.09
in CCCCCCC	-8.08
in CCCCCCCC	-8.05
in O	-7.61

COC(=O)c1ccc(O)cc1
Conditions	solvation free energy, 298 K [kcal/mol]
in C1CCOC1	-12.5
in C1COCCO1	-12.3
in CC(C)(C)O	-12.2
in CC(C)=O	-12.3
in CC(C)CO	-12
in CCC(C)O	-12.2
in CCCCCC	-7.42
in CCCCCCCCCCO	-11.4
in CCCCCCO	-11.9
in CCCCCO	-12
in CCCCO	-12.1
in CCCCOC(C)=O	-11.8
in CCCCOCCCC	-10.7
in CCCO	-12.2
in CCOC(C)=O	-11.9
in CCOCC	-11.7
in CNC=O	-12.7
in COC(C)(C)C	-11.8
in NC=O	-12.1
in O	-9.35

COc1cc(C2c3cc4c(cc3C(O)C3COC(=O)C23)OCO4)cc(OC)c1OC (stereo not drawn)
Conditions	solvation free energy, 298 K [kcal/mol]
in CC(C)O	-25.1
in CCO	-25.3

O=Cc1cccnc1
Conditions	solvation free energy, 298 K [kcal/mol]
in O	-7.1

Clc1cc(Cl)c(-c2cc(Cl)ccc2Cl)c(Cl)c1
Conditions	solvation free energy, 298 K [kcal/mol]
in O	-2.25

c1ccc2c(c1)Nc1ccccc1S2
Conditions	solvation free energy, 298 K [kcal/mol]
in C1CCOC1	-14.7
in C1COCCO1	-14.4
in CC(C)(C)O	-12.7
in CC(C)CC(C)(C)C	-10.9
in CC(C)CC(C)O	-12.6
in CC(C)CCO	-12.8
in CC(C)CO	-12.6
in CC(C)O	-12.8
in CC(C)OC(C)C	-12.8
in CCC(C)CO	-12.7
in CCC(C)O	-12.8
in CCCC(C)CO	-12.8
in CCCC(C)O	-12.8
in CCCCC(CC)CO	-12.7
in CCCCCC	-11.1
in CCCCCCC	-11.2
in CCCCCCCC	-11.2
in CCCCCCCCCC	-11.2
in CCCCCCCCCCO	-13
in CCCCCCCCO	-13.1
in CCCCCCCO	-13.1
in CCCCCCO	-13.1
in CCCCCO	-13.1
in CCCCO	-13.1
in CCCCOCCCC	-12.7
in CCCO	-13.1
in CCCOC(C)=O	-13.9
in CCO	-13.2
in CCOCC	-13.5
in CO	-13.1
in COC(C)(C)C	-13.4

COC(=O)CCl
Conditions	solvation free energy, 298 K [kcal/mol]
in O	-4

CCCCCCCOC(=O)c1ccccc1C(=O)OCCCCC
Conditions	solvation free energy, 298 K [kcal/mol]
in O	-6.78

COC(=O)c1cc(OC)c(O)c(-c2cc(C(=O)OC)cc(OC)c2O)c1
Conditions	solvation free energy, 298 K [kcal/mol]
in CCC(C)=O	-20.8
in CCCO	-20.8
in ClC=CCl	-21.7
in O	-17.3

Clc1ccc(-c2cc(Cl)c(Cl)c(Cl)c2Cl)cc1
Conditions	solvation free energy, 298 K [kcal/mol]
in CCCCCCCCO	-12.8

COC(C)(OC)OC
Conditions	solvation free energy, 298 K [kcal/mol]
in O	-4.42
